Laboratory results: ChEMBL document CHEMBL1201862, “PubChem BioAssay data set” (2004)
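Where inhibition never reached the appropriate level, the endpoint shown equals the highest concentration tested. Otherwise, values were interpolated linearly from a five-concentration, 48-hour dose response in 96-well plates. GI50 = concentration required for 50% inhibition of growth.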 Active and inactive are the calls of the source. Cut-off read from the data, not from the text of the source: active = GI50 up to about 1.1 µM and inactive = higher.

Tests used:
Assay in all cases: inhibition of tumour cell growth, NCI panel, 48 h
DMS-114 = system: DMS-114
M19-MEL = system: M19-MEL
KM-20L2 = system: KM-20L2
RXF 631 = system: RXF 631
HOP-18 = system: HOP-18
SNB-78 = system: SNB-78
LXFL 529 = system: LXFL 529
DMS-273 = system: DMS-273
XF498 = system: XF498

Measured: GI50

COC(=O)/C=C1/CCC2[C@@H](C(=O)CC3[C@]2(C)CCC[C@@]3(C)C(=O)OC)C1C (some centres undefined)
inactive: DMS-114 10.3 µM | M19-MEL 15.5 µM | KM-20L2 13.1 µM | RXF 631 15.5 µM | HOP-18 14.4 µM | SNB-78 10 µM | LXFL 529 6.22 µM | DMS-273 12.7 µM | XF498 15.3 µM
